Measurements reported in patent US11833160B2, “Ursodeoxycholic acid derivatives as HDAC inhibitors for the treatment of polycystic diseases” (UNIVERSIDAD DEL PAIS VASCO/EUSKAL HERRIKO UNIBERTSITATEA, priority 2017, dated 2023).

What was measured:
HDAC enzymes = assay: Enzymatic activity assays in 11 HDAC enzymes (statements on the panel); type: biochemical, human; conditions: HDAC enzymes other than HDAC6
Description: (§1) Peptide substrates: all HDAC assays were performed using acetylated peptide substrates labeled with 7-amino-4-methylcoumarin (AMC): • Substrate for isoforms HDAC1, 2, 3, 6, 10, 11, and HeLa nuclear extract assays: acetylated fluorogenic peptide from p53 residues 379-382 (RHKKAc). • Substrate for isoforms HDAC4, 5, 7, 9: fluorogenic Boc-L-Lys (s-trifluoroacetyl)-AMC. • Substrate for HDAC8 assays: acetylated fluorogenic peptide from p53 residues 379-382 (RHKAcKAc).
(§2) 50 μl of peptide substrate (see “peptide substrates” section above) and an optimal concentration of the corresponding enzyme (see “enzymes” section above) in the assay buffer at a final DMSO concentration of 1% were incubated in the presence of gradient concentrations of inhibitors (10-dose IC50 mode with 3-fold serial dilution) at 30° C. for 2 hours. The reactions were carried out in a 96-well microplate for fluorometry in a 50 μl reaction volume. After the deacetylation reaction, Fluor-de-Lys-Developer (BioMol Cat. #KI-105) was added to each well to digest the deacetylated substrate, thereby producing the fluorescent signal. The reaction was carried out for 45 minutes at 30° C. with 5% CO2; the fluorescent signal was then measured using an excitation wavelength of 360 nm and an emission wavelength of 460 nm in a microplate-reading fluorometer (GeminiXS, Molecular Devices, Sunnyvale, CA). A curve of deacetylated standard (Biomol, Cat. #KI-142; made from 100 μM with 1:2 dilution and 10 doses, 6 μl) allowed the conversion of the fluorescent signal into micromoles of deacetylated product. All experiments were performed in triplicate. The IC50s were calculated by fitting the experimental data to dose-response curve. DMSO was used as negative control; Trichostatin A (Biomol Cat. #GR-309) was used as positive control inhibitor.
(§3) Enzymatic activity assays were carried out in 11 HDAC enzymes, including HDAC6.

human HDAC6 = biological target: T1, human HDAC6 (Homo sapiens, UniProt Q9UBN7); assay: HDAC6 enzymatic activity assay (fluorogenic peptide); type: biochemical; conditions: for IC50: 10-dose, 3-fold serial dilution, triplicate
T1 construct: GST (N); purchased BioMol SE-508; host or cells: baculovirus / Sf9 cells
T1 sequence (Q9UBN7 1-1215): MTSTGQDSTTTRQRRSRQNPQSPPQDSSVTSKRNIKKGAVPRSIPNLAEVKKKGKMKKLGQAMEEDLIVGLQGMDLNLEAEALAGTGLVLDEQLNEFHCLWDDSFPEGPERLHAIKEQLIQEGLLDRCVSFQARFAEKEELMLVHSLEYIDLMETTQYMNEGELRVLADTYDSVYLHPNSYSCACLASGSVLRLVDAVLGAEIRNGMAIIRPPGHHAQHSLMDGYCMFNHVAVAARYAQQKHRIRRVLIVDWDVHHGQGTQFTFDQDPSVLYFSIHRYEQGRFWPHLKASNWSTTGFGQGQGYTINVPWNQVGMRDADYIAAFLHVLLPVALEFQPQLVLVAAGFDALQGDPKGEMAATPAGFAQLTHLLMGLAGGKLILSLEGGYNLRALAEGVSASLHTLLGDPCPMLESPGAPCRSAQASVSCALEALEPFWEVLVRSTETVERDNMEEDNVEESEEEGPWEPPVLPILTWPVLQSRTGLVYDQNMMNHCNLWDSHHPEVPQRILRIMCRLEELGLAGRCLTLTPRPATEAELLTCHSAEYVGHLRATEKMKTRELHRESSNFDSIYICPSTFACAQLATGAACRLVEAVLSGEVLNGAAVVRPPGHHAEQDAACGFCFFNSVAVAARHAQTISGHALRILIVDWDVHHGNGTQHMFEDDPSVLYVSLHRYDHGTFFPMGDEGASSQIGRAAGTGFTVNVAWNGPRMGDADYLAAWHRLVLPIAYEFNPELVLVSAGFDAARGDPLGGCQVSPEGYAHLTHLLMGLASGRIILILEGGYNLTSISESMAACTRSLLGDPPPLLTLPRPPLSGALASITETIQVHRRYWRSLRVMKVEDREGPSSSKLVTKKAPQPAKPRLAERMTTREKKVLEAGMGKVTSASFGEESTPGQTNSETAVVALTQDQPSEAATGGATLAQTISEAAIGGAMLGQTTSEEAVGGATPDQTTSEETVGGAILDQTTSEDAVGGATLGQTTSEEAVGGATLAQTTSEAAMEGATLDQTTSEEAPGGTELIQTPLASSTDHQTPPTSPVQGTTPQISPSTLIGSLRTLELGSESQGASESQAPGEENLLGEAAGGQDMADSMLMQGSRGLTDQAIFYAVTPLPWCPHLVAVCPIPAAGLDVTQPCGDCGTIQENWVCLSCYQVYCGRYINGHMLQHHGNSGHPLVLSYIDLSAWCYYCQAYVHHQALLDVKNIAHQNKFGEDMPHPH
Description: as §1, §2, §3

human HDAC10 = biological target: T2, human HDAC10 (Homo sapiens, UniProt Q969S8); assay: HDAC10 enzymatic activity assay (fluorogenic peptide); type: biochemical; conditions: 10-dose, 3-fold serial dilution, triplicate
T2 sequence (Q969S8 1-631): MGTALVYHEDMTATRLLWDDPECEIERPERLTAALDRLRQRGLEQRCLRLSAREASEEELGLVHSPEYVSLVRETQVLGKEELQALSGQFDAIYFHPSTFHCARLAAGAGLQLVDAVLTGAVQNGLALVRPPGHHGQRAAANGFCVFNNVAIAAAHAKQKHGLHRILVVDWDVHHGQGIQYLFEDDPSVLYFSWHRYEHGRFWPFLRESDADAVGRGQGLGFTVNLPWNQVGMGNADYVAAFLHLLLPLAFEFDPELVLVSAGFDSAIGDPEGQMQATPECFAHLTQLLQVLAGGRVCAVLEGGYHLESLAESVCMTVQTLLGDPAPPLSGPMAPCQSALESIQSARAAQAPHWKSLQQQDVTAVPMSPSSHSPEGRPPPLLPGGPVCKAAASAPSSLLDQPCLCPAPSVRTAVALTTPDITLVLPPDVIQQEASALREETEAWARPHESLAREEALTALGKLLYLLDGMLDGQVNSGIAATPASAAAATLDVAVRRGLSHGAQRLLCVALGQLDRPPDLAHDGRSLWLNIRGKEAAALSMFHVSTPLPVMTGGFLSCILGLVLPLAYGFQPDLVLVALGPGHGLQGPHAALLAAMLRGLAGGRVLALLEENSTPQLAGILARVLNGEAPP
Description: as §1
50 μl of peptide substrate (see “peptide substrates” section above) and an optimal concentration of the corresponding enzyme (see “enzymes” section above) in the assay buffer at a final DMSO concentration of 1% were incubated in the presence of gradient concentrations of inhibitors (10-dose IC50 mode with 3-fold serial dilution) at 30° C. for 2 hours. The reactions were carried out in a 96-well microplate for fluorometry in a 50 μl reaction volume. After the deacetylation reaction, Fluor-de-Lys-Developer (BioMol Cat. #KI-105) was added to each well to digest the deacetylated substrate, thereby producing the fluorescent signal. The reaction was carried out for 45 minutes at 30° C. with 5% CO2; the fluorescent signal was then measured using an excitation wavelength of 360 nm and an emission wavelength of 460 nm in a microplate-reading fluorometer (GeminiXS, Molecular Devices, Sunnyvale, CA). […]

SMILES: C[C@H](CCC(=O)NCC(=O)NCc1ccc(C(=O)NO)cc1)[C@H]1CC[C@H]2[C@@H]3[C@@H](O)C[C@@H]4C[C@H](O)CC[C@]4(C)[C@H]3CC[C@]12C [Ib, 4-((2-((R)-4 ((3R,5S,7S,8R,9S,10S,13R,14S,17R)-3,7-dihydroxy-10,13-dimethylhexadecahydro-1H-cyclopenta[a]phenanthren-17-yl)pentanamide)acetamido)methyl)-N-hydroxybenzamide]
- inhibitory capacity with respect to the rest of the HDAC enzymes (HDAC enzymes): micromolar range
- selectivity and inhibitory capacity with respect to HDAC6 enzyme (human HDAC6): nanomolar range
- IC50 (human HDAC6): 56.1 nM
- IC50 (human HDAC10): 21.8 µM

SMILES: C[C@H](CCC(=O)NCc1ccc(C(=O)NO)cc1)[C@H]1CC[C@H]2[C@@H]3[C@@H](O)C[C@@H]4C[C@H](O)CC[C@]4(C)[C@H]3CC[C@]12C [Compound Ia]
- inhibitory capacity with respect to the rest of the HDAC enzymes (HDAC enzymes): micromolar range
- selectivity and inhibitory capacity with respect to HDAC6 enzyme (human HDAC6): nanomolar range
- IC50 (human HDAC6): 58 nM
- HDAC6 selectivity proportion (human HDAC6; matches IC50 HDAC1 / IC50 HDAC6): 174
- IC50 (human HDAC10): 24.5 µM
